Assay results published in patent US20230241178A1, “LONG ACTING GLP-1/GIP DUAL AGONISTS” (SUN PHARMACEUTICAL INDUSTRIES LIMITED, priority 2020, published 2023).
Marks after values point to notes of the source that are not given here.

Tests used:
[1] = system: type 2 diabetic mouse (db/db) model; test: Reduction of HbA1c in db/db type 2 diabetic mice after chronic treatment (HbA1c, insulin, triglycerides, food consumption, body weight); assay type: in vivo; conditions: for Cumulative Food Consumption Day 0-28 / Insulin / Triglycerides / Δ% HbA1c vs. DC / Body Weight (%) Day 28 vs. Baseline: db/db mice
Method: This study was performed in a type 2 diabetic mouse (db/db) model. […] All the treatments were injected subcutaneously every third day for 10 doses (q3d*10). % HbA1c, Insulin, Triglycerides levels were measured on Day 0, day 14 and day 28. Cumulative food intake from day 0-28 and % Change in body weight compared to day 0 was calculated on day 28.

GLP-1R = target: T1, GLP-1R (Homo sapiens, UniProt P43220); test: cAMP assay (cAMP Hunter eXpress GPCR Assay) on GLP-1R-expressing cells; assay type: cell-based; conditions: read-out: half-maximal effective concentration, cellular cAMP
T1 construct: host or cells: GLP-1R-expressing cells of the cAMP Hunter eXpress GPCR Assay kit
Method: (§1) In-vitro potency determination was performed using cAMP assay. G protein coupled receptor (GPCR) activation following ligand binding initiates a series of second messenger cascades that results in a cellular response. Signaling by the GLP-1R and GIP-R involves activation of adenylate cyclase and cAMP production. Cellular cAMP production was determined using the cAMP Hunter™ eXpress GPCR Assay (Eurofins DiscoveRx).

GIPR = target: T2, GIPR (Homo sapiens, UniProt P48546); test: cAMP assay (cAMP Hunter eXpress GPCR Assay) on GIPR-expressing cells; assay type: cell-based; conditions: read-out: half-maximal effective concentration, cellular cAMP
T2 construct: host or cells: GIPR-expressing cells of the cAMP Hunter eXpress GPCR Assay kit
T2 sequence (P48546 22-466): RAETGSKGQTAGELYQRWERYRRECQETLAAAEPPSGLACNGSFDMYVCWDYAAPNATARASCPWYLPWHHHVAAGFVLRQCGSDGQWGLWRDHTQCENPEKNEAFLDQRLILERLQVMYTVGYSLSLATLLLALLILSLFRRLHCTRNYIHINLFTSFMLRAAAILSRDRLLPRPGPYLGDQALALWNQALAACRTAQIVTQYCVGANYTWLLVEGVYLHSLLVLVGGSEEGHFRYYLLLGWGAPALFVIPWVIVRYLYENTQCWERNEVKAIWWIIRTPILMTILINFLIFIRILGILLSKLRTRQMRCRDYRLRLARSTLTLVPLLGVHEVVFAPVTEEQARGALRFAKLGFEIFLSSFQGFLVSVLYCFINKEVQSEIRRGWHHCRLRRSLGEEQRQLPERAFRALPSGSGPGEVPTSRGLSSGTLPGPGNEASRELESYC
Method: as §1

[2] = system: type 2 diabetic mouse (db/db) model; test: Reduction in blood glucose and effect on body weight and food intake, single dose, db/db mice (Tables 4, 5); assay type: in vivo
Method: The effect of Compounds of present invention on blood glucose was studied on mice. This study was performed in a type 2 diabetic mouse (db/db) model. […] Baseline blood glucose was measured from all the animals. All animals were administered with its respective test item subcutaneously. […] Delta blood glucose (mM) was calculated. Similarly body weight changes and cumulative food consumption was measured at 96 hr post treatment.

[3] = system: type 2 diabetic mouse (db/db) model; test: Effect of Compound 2 and 7 on blood glucose, body weight and food consumption in mice, up to 72 hr (Tables 6, 7); assay type: in vivo; conditions: 10 nM/kg
Method: Similarly body weight changes and cumulative food consumption was measured at 72 hr post treatment.

[4] = system: type 2 diabetic mouse (db/db) model; test: Effect on blood glucose, food intake and body weight, single s.c. dose 10 nM/kg, db/db mice (Tables 8, 9); assay type: in vivo; conditions: 10 nM/kg/s.c/single dose
Method: This study was performed in a type 2 diabetic mouse (db/db) model. […] Baseline blood glucose was measured from all the animals. All the animals were administered with test items subcutaneously. Blood glucose was measured at 4 hr, 12 hr, 24 hr, 48 hr, 72 hr and 96 hr post treatment. Delta blood glucose (mM) was calculated. Body weight changes and cumulative food consumption was measured at 96 hr post treatment. Similarly the effect of Compounds 11-15 on blood glucose, food intake and body weight was studied in a separate study except for Compound 13. The results are shown in Table 8 (effect on blood glucose) and Table 9 (effect on body weight and food consumption).

[5] = system: type 2 diabetic mouse (db/db) model; test: Reduction of HbA1c in db/db type 2 diabetic mice after chronic treatment (HbA1c, insulin, triglycerides, food consumption, body weight); assay type: in vivo; conditions: 9 nM/kg and 18 nM/kg dose
[6] = 6 nM/kg s.c., separate study n = 5

T1 sequence (P43220 24-463): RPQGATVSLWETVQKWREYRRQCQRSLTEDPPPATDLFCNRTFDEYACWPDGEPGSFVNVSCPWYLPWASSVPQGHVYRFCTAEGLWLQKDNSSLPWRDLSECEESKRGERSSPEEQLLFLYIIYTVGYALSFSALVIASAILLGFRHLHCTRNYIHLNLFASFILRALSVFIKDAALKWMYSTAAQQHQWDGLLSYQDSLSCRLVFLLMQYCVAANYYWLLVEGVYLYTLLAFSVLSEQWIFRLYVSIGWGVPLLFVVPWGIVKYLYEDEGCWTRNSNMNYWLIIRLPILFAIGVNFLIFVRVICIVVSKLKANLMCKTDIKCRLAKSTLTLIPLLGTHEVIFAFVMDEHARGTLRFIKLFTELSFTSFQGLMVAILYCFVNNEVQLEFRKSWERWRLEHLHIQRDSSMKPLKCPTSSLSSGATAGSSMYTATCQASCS

Structure (SMILES): CC[C@H](C)[C@H](NC(=O)[C@H](CC(C)C)NC(=O)[C@H](Cc1c[nH]c2ccccc12)NC(=O)[C@H](CCC(N)=O)NC(=O)[C@@H](NC(=O)[C@H](Cc1ccccc1)NC(=O)[C@H](C)NC(=O)[C@H](CCCCNC(=O)COCCOCCNC(=O)C(C)(C)NC(=O)CC[C@H](NC(=O)CCCCCCCCCCCCCCCCCCC(=O)O)C(=O)O)NC(=O)[C@H](CCC(N)=O)NC(=O)[C@H](C)NC(=O)[C@@H](NC(=O)[C@H](CCCCN)NC(=O)[C@H](CC(=O)O)NC(=O)[C@H](CC(C)C)NC(=O)C(C)(C)NC(=O)[C@@H](NC(=O)[C@H](CO)NC(=O)[C@H](Cc1ccc(O)cc1)NC(=O)[C@H](CC(=O)O)NC(=O)[C@H](CO)NC(=O)[C@@H](NC(=O)[C@H](Cc1ccccc1)NC(=O)[C@@H](NC(=O)CNC(=O)[C@H](CCC(=O)O)NC(=O)C(C)(C)NC(=O)[C@@H](N)Cc1ccc(O)cc1)[C@@H](C)O)[C@@H](C)O)[C@@H](C)CC)[C@@H](C)CC)C(C)C)C(=O)N[C@@H](C)C(=O)NCC(=O)NCC(=O)N1CCC[C@H]1C(=O)N[C@@H](CO)C(=O)N[C@@H](CO)C(=O)NCC(=O)N[C@@H](C)C(=O)N1CCC[C@H]1C(=O)N1CCC[C@H]1C(=O)N1CCC[C@H]1C(=O)N[C@@H](CO)C(N)=O [Compound 2]
- insulin levels compared to the diabetic control group (in words) ([1]; 9 nM/kg, day 14): statistically significant increase in insulin levels
- triglycerides compared to the diabetic control group (in words) ([1]; 4.5, 9 and 18 nM/kg): statistically significant lowering of triglycerides
- change in HbA1c compared to the diabetic control (in words) ([1]; 4.5, 9 and 18 nM/kg, day 14 and 28th day): statistically significant change in HbA1c
- body weight compared to the diabetic control group (in words) ([1]; 4.5, 9 and 18 nM/kg, day 28): statistically significant decrease in body weight
- cumulative food consumption compared to the diabetic control group (in words) ([1]; 4.5, 9 and 18 nm/kg, course of the study): statistically significant reduction in cumulative food consumption
- Cumulative Food Consumption Day 0-28 ([1]; 4.5 nM/kg s.c. q3d*10): 112.4
- Cumulative Food Consumption Day 0-28 ([1]; 9 nM/kg s.c. q3d*10): 111.8
- Cumulative Food Consumption Day 0-28 ([1]; 18 nM/kg s.c. q3d*10): 89.5
- Insulin ([1]; Day 14, 4.5 nM/kg s.c. q3d*10): 34.75 ng/mL
- Triglycerides ([1]; Day 14, 4.5 nM/kg s.c. q3d*10): 218.7 mg/dL
- Δ% HbA1c vs. DC ([1]; Day 14, 4.5 nM/kg s.c. q3d*10): −2.43*** %
- Insulin ([1]; Day 14, 9 nM/kg s.c. q3d*10): 69.63 ng/mL
- Triglycerides ([1]; Day 14, 9 nM/kg s.c. q3d*10): 169.8 mg/dL
- Δ% HbA1c vs. DC ([1]; Day 14, 9 nM/kg s.c. q3d*10): −2.90*** %
- Insulin ([1]; Day 14, 18 nM/kg s.c. q3d*10): 75.09 ng/mL
- Triglycerides ([1]; Day 14, 18 nM/kg s.c. q3d*10): 172.4 mg/dL
- Δ% HbA1c vs. DC ([1]; Day 14, 18 nM/kg s.c. q3d*10): −3.04*** %
- Body Weight (%) Day 28 vs. Baseline ([1]; Day 28, 4.5 nM/kg s.c. q3d*10): −7.0%
- Insulin ([1]; Day 28, 4.5 nM/kg s.c. q3d*10): 33.44 ng/mL
- Triglycerides ([1]; Day 28, 4.5 nM/kg s.c. q3d*10): 208.9 mg/dL
- Δ% HbA1c vs. DC ([1]; Day 28, 4.5 nM/kg s.c. q3d*10): −3.64*** %
- Body Weight (%) Day 28 vs. Baseline ([1]; Day 28, 9 nM/kg s.c. q3d*10): −8.9%
- Insulin ([1]; Day 28, 9 nM/kg s.c. q3d*10): 53.87 ng/mL
- Triglycerides ([1]; Day 28, 9 nM/kg s.c. q3d*10): 147.4 mg/dL
- Δ% HbA1c vs. DC ([1]; Day 28, 9 nM/kg s.c. q3d*10): −4.19*** %
- Body Weight (%) Day 28 vs. Baseline ([1]; Day 28, 18 nM/kg s.c. q3d*10): −9.3%
- Insulin ([1]; Day 28, 18 nM/kg s.c. q3d*10): 76.93 ng/mL
- Triglycerides ([1]; Day 28, 18 nM/kg s.c. q3d*10): 144.3 mg/dL
- Δ% HbA1c vs. DC ([1]; Day 28, 18 nM/kg s.c. q3d*10): −4.25*** %
- EC50 (GLP-1R): 4.1 nM
- EC50 (GIPR): 2.3 nM
- Cumulative Food Intake (g) 0-96 hr, Mean ([2]; 3 nM/kg s.c., n = 6 study): 14.6*** g
- Body Weight Change (%) 96 hr., Mean ([2]; 3 nM/kg s.c., n = 6 study): −5*** %
- Cumulative Food Intake (g) 0-96 hr, Mean [2, 6]: 18.2 g
- Body Weight Change (%) 96 hr., Mean [2, 6]: −0.9%
- Delta Blood Glucose (mM), Mean ([2]; 4 hr post treatment, @ 3 nM s.c., n = 6 study): -12.6 mM
- Delta Blood Glucose (mM), Mean ([2]; 4 hr post treatment, @ 6 nM s.c., separate study n = 5): −14.4*** mM
- Delta Blood Glucose (mM), Mean ([2]; 12 hr post treatment, @ 3 nM s.c., n = 6 study): -10.6 mM
- Delta Blood Glucose (mM), Mean ([2]; 12 hr post treatment, @ 6 nM s.c., separate study n = 5): −18.0*** mM
- Delta Blood Glucose (mM), Mean ([2]; 24 hr post treatment, @ 3 nM s.c., n = 6 study): -8.3 mM
- Delta Blood Glucose (mM), Mean ([2]; 24 hr post treatment, @ 6 nM s.c., separate study n = 5): −16.9*** mM
- Delta Blood Glucose (mM), Mean ([2]; 48 hr post treatment, @ 3 nM s.c., n = 6 study): -7.3 mM
- Delta Blood Glucose (mM), Mean ([2]; 48 hr post treatment, @ 6 nM s.c., separate study n = 5): −8.9*** mM
- Delta Blood Glucose (mM), Mean ([2]; 72 hr post treatment, @ 3 nM s.c., n = 6 study): -4.7 mM
- Delta Blood Glucose (mM), Mean ([2]; 72 hr post treatment, @ 6 nM s.c., separate study n = 5): 0.1 mM
- Delta Blood Glucose (mM), Mean ([2]; 96 hr post treatment, @ 3 nM s.c., n = 6 study): -0.3 mM
- Delta Blood Glucose (mM), Mean ([2]; 96 hr post treatment, @ 6 nM s.c., separate study n = 5): 2.1 mM
- time for which efficacy on blood glucose was maintained [3]: 72 h
- % Body wt. change 72 hr. vs. 0 hr., Mean ([3]; mice, n = 8): −7.2*** %
- Cumulative Food Consumption (0-72 hr) (g), Mean ([3]; mice, n = 8): 8.4*** g
- Delta Blood Glucose (mM), Mean ([3]; 4 hr post treatment, mice, n = 8): -15.6 mM
- Delta Blood Glucose (mM), Mean ([3]; 8 hr post treatment, mice, n = 8): -16.3 mM
- Delta Blood Glucose (mM), Mean ([3]; 12 hr post treatment, mice, n = 8): -16.0 mM
- Delta Blood Glucose (mM), Mean ([3]; 24 hr post treatment, mice, n = 8): -14.6 mM
- Delta Blood Glucose (mM), Mean ([3]; 72 hr post treatment, mice, n = 8): -4.1 mM
- Delta Blood Glucose (mM), Mean ([4]; 0 hr (baseline)): 0.0 mM
- Body Wt. Change (%) 96 hr. vs. Baseline, Mean [4]: −4.2*** %
- Cumulative food Intake (g) 96 hr. vs. Baseline, Mean [4]: 12.3*** g
- blood glucose reduction post treatment (in words) [4]: statistically significant blood glucose reduction
- Delta Blood Glucose (mM), Mean ([4]; 4 hr post treatment): −13.1*** mM
- Delta Blood Glucose (mM), Mean ([4]; 12 hr post treatment): −11.7*** mM
- Delta Blood Glucose (mM), Mean ([4]; 24 hr post treatment): −8.2*** mM
- Delta Blood Glucose (mM), Mean ([4]; 48 hr post treatment): −6.0** mM
- Delta Blood Glucose (mM), Mean ([4]; 72 hr post treatment): -2.8 mM
- Delta Blood Glucose (mM), Mean ([4]; 96 hr post treatment): 0.6 mM
- reduction in HbA1c on day 29 more than the reduction on day 14 [5]: more than 40%
